Data taken from ChEMBL document CHEMBL3774345, “Synthesis of new diarylamides with pyrimidinyl pyridine scaffold and evaluation of their anti-proliferative effect on cancer cell lines” (Bioorg Med Chem Lett, 2016).
pIC50: −log10 of the molar value.

Assays:
[1] = Cytotoxicity against human DU145 cells assessed as cell growth at 10^-7 M after 24 hrs by SRB assay; assay type: functional; settings: DU-145, 24 h, read-out: Activity
MDA-MB-435 = experiment: Cytotoxicity against human MDA-MB-435 cells assessed as cell growth at 10^-4 M after 24 hrs by SRB assay; assay type: functional; settings: MDA-MB-435, 24 h, read-out: Activity
[2] = Cytotoxicity against human MOLT4 cells assessed as cell growth at 10^-8 M after 24 hrs by SRB assay; assay type: functional; settings: MOLT-4, 24 h, read-out: Activity
M14 [3] = experiment: Cytotoxicity against human M14 cells after 24 hrs by SRB assay; assay type: functional, cell-based; settings: M14, 24 h
[4] = Cytotoxicity against human HCT15 cells assessed as cell growth at 10^-4 M after 24 hrs by SRB assay; assay type: functional; settings: HCT-15, 24 h, read-out: Activity
NCI-H226 [5] = experiment: Cytotoxicity against human NCI-H226 cells assessed as cell growth at 10^-7 M after 24 hrs by SRB assay; assay type: functional; settings: NCI-H226, 24 h, read-out: Activity
[6] = Cytotoxicity against human SKOV3 cells after 24 hrs by SRB assay; assay type: functional; settings: SK-OV-3, 24 h
NCI-H522 = experiment: Cytotoxicity against human NCI-H522 cells assessed as cell growth at 10^-6 M after 24 hrs by SRB assay; assay type: functional; settings: NCI-H522, 24 h, read-out: Activity
[7] = Cytotoxicity against human COLO205 cells assessed as cell growth at 10^-6 M after 24 hrs by SRB assay; assay type: functional; settings: COLO 205, 24 h, read-out: Activity
[8] = Cytotoxicity against human UACC257 cells assessed as cell growth at 10^-8 M after 24 hrs by SRB assay; assay type: functional; settings: UACC-257, 24 h, read-out: Activity
M14 [9] = experiment: Cytotoxicity against human M14 cells assessed as cell growth at 10^-6 M after 24 hrs by SRB assay; assay type: functional; settings: M14, 24 h, read-out: Activity
[10] = Cytotoxicity against human IGROV1 cells assessed as cell growth at 10^-8 M after 24 hrs by SRB assay; assay type: functional; settings: IGROV-1, 24 h, read-out: Activity
K562 = experiment: Cytotoxicity against human K562 cells assessed as cell growth at 10^-4 M after 24 hrs by SRB assay; assay type: functional; settings: K562, 24 h, read-out: Activity
NCI-H226 [11] = experiment: Cytotoxicity against human NCI-H226 cells assessed as cell growth at 10^-5 M after 24 hrs by SRB assay; assay type: functional; settings: NCI-H226, 24 h, read-out: Activity
MCF7 = experiment: Cytotoxicity against human MCF7 cells after 24 hrs by SRB assay; assay type: functional; settings: MCF7, 24 h
[12] = Cytotoxicity against human OVCAR8 cells after 24 hrs by SRB assay; assay type: functional; settings: OVCAR-8, 24 h
Malme-3M = experiment: Cytotoxicity against human MALME-3M cells assessed as cell growth at 10^-6 M after 24 hrs by SRB assay; assay type: functional; settings: read-out: Activity
M14 [13] = experiment: Cytotoxicity against human M14 cells assessed as cell growth at 10^-7 M after 24 hrs by SRB assay; assay type: functional; settings: M14, 24 h, read-out: Activity
[14] = Cytotoxicity against human OVCAR4 cells assessed as cell growth at 10^-6 M after 24 hrs by SRB assay; assay type: functional; settings: OVCAR-4, 24 h, read-out: Activity
SR = experiment: Cytotoxicity against human SR cells assessed as cell growth at 10^-8 M after 24 hrs by SRB assay; assay type: functional; settings: read-out: Activity
[15] = Cytotoxicity against human Caki1 cells after 24 hrs by SRB assay; assay type: functional; settings: CAKI-1, 24 h
[16] = Cytotoxicity against human RXF393 cells after 24 hrs by SRB assay; assay type: functional, cell-based; settings: RXF 393, 24 h
[17] = Cytotoxicity against human SF268 cells assessed as cell growth at 10^-7 M after 24 hrs by SRB assay; assay type: functional; settings: SF-268, 24 h, read-out: Activity
[18] = Cytotoxicity against human HOP62 cells assessed as cell growth at 10^-6 M after 24 hrs by SRB assay; assay type: functional; settings: HOP-62, 24 h, read-out: Activity
[19] = Cytotoxicity against human HCC2998 cells assessed as cell growth at 10^-6 M after 24 hrs by SRB assay; assay type: functional; settings: HCC 2998, 24 h, read-out: Activity
[20] = Cytotoxicity against human OVCAR3 cells assessed as cell growth at 10^-7 M after 24 hrs by SRB assay; assay type: functional; settings: OVCAR-3, 24 h, read-out: Activity
[21] = Cytotoxicity against human NCI-ADR-RES cells assessed as cell growth at 10^-6 M after 24 hrs by SRB assay; assay type: functional; settings: read-out: Activity
786-0 = experiment: Cytotoxicity against human 786-0 cells assessed as cell growth at 10^-8 M after 24 hrs by SRB assay; assay type: functional; settings: 786-0, 24 h, read-out: Activity
SK-MEL-2 = experiment: Cytotoxicity against human SK-MEL-2 cells assessed as cell growth at 10^-7 M after 24 hrs by SRB assay; assay type: functional; settings: SK-MEL-2, 24 h, read-out: Activity
[22] = Cytotoxicity against human SF295 cells assessed as cell growth at 10^-8 M after 24 hrs by SRB assay; assay type: functional; settings: SF-295, 24 h, read-out: Activity
[23] = Cytotoxicity against human LOXIMVI cells assessed as cell growth at 10^-8 M after 24 hrs by SRB assay; assay type: functional; settings: LOX IMVI, read-out: Activity
[24] = Cytotoxicity against human Hs 578T cells assessed as cell growth at 10^-6 M after 24 hrs by SRB assay; assay type: functional; settings: read-out: Activity
[25] = Cytotoxicity against human Hs 578T cells after 24 hrs by SRB assay; assay type: functional
A549 = experiment: Cytotoxicity against human A549 cells assessed as cell growth at 10^-8 M after 24 hrs by SRB assay; assay type: functional; settings: A549, 24 h, read-out: Activity
[26] = read-out: LC50 (the source's name)
[27] = read-out: pLC50 (the source's name) (converted)

For `O=C(Nc1cc(-c2cccnc2)nc(NCCCN2CCOCC2)n1)c1cc(Br)cc(C(F)(F)F)c1`, the growth at 0.1 µM [1] was 105%, the growth at 100 µM (MDA-MB-435) was -100% and the growth at 0.01 µM [2] was 99%. For the same compound, the GI50 (M14 [3]) was 1.66 µM, the CC50 (M14 [3]; [26]) was 6.59 µM and the TGI (M14 [3]; read-out: TGI) was 3.32 µM. The CC50 (M14 [3]; [27]) was 6.61 µM, the TGI (M14 [3]; read-out: pTGI (converted)) was 3.31 µM and the growth at 100 µM [4] was -96%. The growth at 0.1 µM (NCI-H226 [5]) was 93%, the GI50 ([6]; read-out: GI50) was 7.26 µM and the CC50 [6, 26] was 44.9 µM. It also gave a TGI ([6]; read-out: TGI) of 19.9 µM, a GI50 ([6]; read-out: pGI50 (converted)) of 7.24 µM and a CC50 [6, 27] of 44.7 µM. It also gave a TGI ([6]; read-out: pTGI (converted)) of 20 µM, a growth at 1 µM (NCI-H522) of 83% and a growth at 1 µM [7] of 92%. For the same compound, the growth at 0.01 µM [8] was 92%, the growth at 1 µM (M14 [9]) was 87% and the growth at 0.01 µM [10] was 103%. The growth at 100 µM (K562) was -7%, the growth at 10 µM (NCI-H226 [11]) was 49% and the GI50 (MCF7; read-out: GI50) was 2.17 µM. For the same compound, the CC50 (MCF7; [26]) was 44.8 µM, the TGI (MCF7; read-out: TGI) was 9.22 µM and the GI50 (MCF7; read-out: pGI50 (converted)) was 2.24 µM. It also gave a CC50 (MCF7; [27]) of 44.7 µM, a TGI (MCF7; read-out: pTGI (converted)) of 9.12 µM and a GI50 ([12]; read-out: GI50) of 2.98 µM. It also gave a CC50 [12, 26] of 39.4 µM, a TGI ([12]; read-out: TGI) of 8.59 µM and a GI50 ([12]; read-out: pGI50 (converted)) of 2.95 µM. It also gave a CC50 [12, 27] of 39.8 µM, a TGI ([12]; read-out: pTGI (converted)) of 8.51 µM and a growth at 1 µM (Malme-3M) of 90%. It also gave a growth at 0.1 µM (M14 [13]) of 95%, a growth at 1 µM [14] of 84% and a growth at 0.01 µM (SR) of 106%. For the same compound, the GI50 ([15]; read-out: GI50) was 2.53 µM, the CC50 [15, 26] was 32.8 µM and the TGI ([15]; read-out: TGI) was 10.7 µM. The GI50 ([15]; read-out: pGI50 (converted)) was 2.51 µM, the CC50 [15, 27] was 33.1 µM and the TGI ([15]; read-out: pTGI (converted)) was 10.7 µM. The pIC50 [16] was 5.74, the GI50 ([16]; read-out: GI50) was 1.8 µM and the CC50 [16, 26] was 7.23 µM. For the same compound, the TGI ([16]; read-out: TGI) was 3.61 µM, the GI50 ([16]; read-out: pGI50 (converted)) was 1.82 µM and the CC50 [16, 27] was 7.24 µM. It also gave a TGI ([16]; read-out: pTGI (converted)) of 3.63 µM, a growth at 0.1 µM [17] of 94% and a growth at 1 µM [18] of 88%. For the same compound, the growth at 1 µM [19] was 92%, the growth at 0.1 µM [20] was 102% and the growth at 1 µM [21] was 88%. The growth at 0.01 µM (786-0) was 93%, the growth at 0.1 µM (SK-MEL-2) was 95% and the growth at 0.01 µM [22] was 97%. It also gave a growth at 0.01 µM [23] of 93%, a growth at 1 µM [24] of 94% and a GI50 ([25]; read-out: GI50) of 2.71 µM. For the same compound, the CC50 [25, 26] was > 100 µM, the TGI ([25]; read-out: TGI) was 8.51 µM and the GI50 ([25]; read-out: pGI50 (converted)) was 2.69 µM. The CC50 [25, 27] was 100 µM, the TGI ([25]; read-out: pTGI (converted)) was 8.51 µM and the growth at 0.01 µM (A549) was 110%.
